Source: US20210227825A1, “SAFENER” (Nippon Soda Co., Ltd., priority 2018, published 2021)

Tested on: rice seedling (variety: Koshihikari)
Experiment: Rice hydroponics test tube test, number of new roots after 5 days (Example 5, Comparative Examples 1 and 2)
Type: in vivo
Conditions: for safener effect on inhibition of new root development by pyrazosulfuron-ethyl: 0.01 mg pyrazosulfuron-ethyl in 1 L hydroponics solution; for Condition of new roots in test tube of safener composition: 0.01 mg pyrazosulfuron-ethyl plus the safener (0.1 ml safener (A) or 0.01 mg comparative) in 1 L hydroponics solution
Method: One rice seedling (variety: Koshihikari) in the two-leaf stage was transplanted into the test tube. This was placed in an artificial meteorological instrument set to 16 hours (25° C.) in the light period and 8 hours (20° C.) in the dark period. After a lapse of 5 days, the number of new roots was counted. This test was performed a total of 6 times. An average value was calculated from the measured values for 6 times.
A comparative safener composition (1) was obtained by the same method as that for the safener composition (2), with the exception that 0.1 ml of the safener (A) of Example 5 was replaced with a solution obtained by dissolving 0.01 mg of α-naphthylacetamide in 10 μl of DMSO.
A comparative safener composition (2) was obtained by the same method as that for the safener composition (2), with the exception that 0.1 ml of the safener (A) of Example 5 was replaced with a solution obtained by dissolving 0.01 mg of indole butyric acid in 10 μl of DMSO.

| Molecule | safener effect on inhibition of new root development by pyrazosulfuron-ethyl | Condition of new roots in test tube of safener composition |
| --- | --- | --- |
| NC(=O)Cc1cccc2ccccc12 [α-Naphthylacetamide, α-naphthylacetamide] | no safener effect | 3.3 roots |
| indole butyric acid | no safener effect | 5.0 roots |
